Assay results from ChEMBL document CHEMBL4024706 (Eur J Med Chem, 2017).

Tests used:
[1] = tested on: Tyrosine-protein kinase ABL1 (Homo sapiens), P00519 [Q252H]; assay: Inhibition of human phosphorylated ABL1 Q252H mutant expressed in mammalian expression system assessed as residual activity at 1 uM by Kinomescan method relative to control
[2] = biological target: Activin receptor type-1-like (Homo sapiens) (UniProt P37023); assay: Inhibition of wild-type human ACVRL1 (L164 to Q503 residues) expressed in bacterial expression system assessed as residual activity at 1 uM by Kinomescan method relative to control
[3] = biological target: Calcium/calmodulin-dependent protein kinase type II subunit alpha (Homo sapiens) (UniProt Q9UQM7); assay: Inhibition of wild-type human partial length CAMK2A (M1 to K328 residues) expressed in bacterial expression system assessed as residual activity at 1 uM by Kinomescan method relative to control
[4] = biological target: Cyclin-dependent kinase 11A (Homo sapiens) (UniProt Q9UQ88); assay: Inhibition of wild-type human partial length CDC2L2 (D391 to K730 residues) expressed in bacterial expression system assessed as residual activity at 1 uM by Kinomescan method relative to control
[5] = biological target: Macrophage colony-stimulating factor 1 receptor (Homo sapiens) (UniProt P07333); assay: Inhibition of wild-type human partial length CSF1R (I564 to S939 residues) expressed in bacterial expression system assessed as residual activity at 1 uM by Kinomescan method relative to control
[6] = tested on: Epidermal growth factor receptor (Homo sapiens), P00533 [T790M]; assay: Inhibition of human partial length EGFR T790M mutant (R669 to G1022 residues) expressed in mammalian expression system assessed as residual activity at 1 uM by Kinomescan method relative to control
[7] = biological target: Ephrin type-A receptor 5 (Homo sapiens) (UniProt P54756); assay: Inhibition of wild-type human partial length EPHA5 (T627 to V930 residues) expressed in bacterial expression system assessed as residual activity at 1 uM by Kinomescan method relative to control
[8] = biological target: Ephrin type-A receptor 6 (Homo sapiens) (UniProt Q9UF33); assay: Inhibition of wild-type human partial length EPHA6 (Y700 to E1046 residues) expressed in bacterial expression system assessed as residual activity at 1 uM by Kinomescan method relative to control
[9] = biological target: Mitogen-activated protein kinase 6 (Homo sapiens) (UniProt Q16659); assay: Inhibition of wild-type human partial length ERK3 (M1 to P413 residues) expressed in bacterial expression system assessed as residual activity at 1 uM by Kinomescan method relative to control
[10] = biological target: Insulin receptor-related protein (Homo sapiens) (UniProt P14616); assay: Inhibition of wild-type human partial length INSRR (R950 to E1278 residues) expressed in bacterial expression system assessed as residual activity at 1 uM by Kinomescan method relative to control
[11] = biological target: Serine/threonine-protein kinase LATS1 (Homo sapiens) (UniProt O95835); assay: Inhibition of wild-type human partial length LATS1 (Q678 to V1130 residues) expressed in bacterial expression system assessed as residual activity at 1 uM by Kinomescan method relative to control
[12] = biological target: Mitogen-activated protein kinase kinase kinase 13 (Homo sapiens) (UniProt O43283); assay: Inhibition of wild-type human full length LZK (M1 to W966 residues) expressed in mammalian expression system assessed as residual activity at 1 uM by Kinomescan method relative to control
[13] = biological target: Mitogen-activated protein kinase kinase kinase kinase 4 (Homo sapiens) (UniProt O95819); assay: Inhibition of wild-type human partial length MAP4K4 (M1 to R310 residues) expressed in bacterial expression system assessed as residual activity at 1 uM by Kinomescan method relative to control
[14] = biological target: Dual specificity mitogen-activated protein kinase kinase 1 (Homo sapiens) (UniProt Q02750); assay: Inhibition of wild-type human full length MEK1 (M1 to V393 residues) expressed in mammalian expression system assessed as residual activity at 1 uM by Kinomescan method relative to control
[15] = biological target: Myosin light chain kinase (Homo sapiens) (UniProt Q32MK0); assay: Inhibition of wild-type human partial length MLCK (D488 to K800 residues) expressed in bacterial expression system assessed as residual activity at 1 uM by Kinomescan method relative to control
[16] = biological target: Serine/threonine-protein kinase MRCK alpha (Homo sapiens) (UniProt Q5VT25); assay: Inhibition of wild-type human partial length MRCKA (L57 to V418 residues) expressed in bacterial expression system assessed as residual activity at 1 uM by Kinomescan method relative to control
[17] = biological target: Serine/threonine-protein kinase MRCK beta (Homo sapiens) (UniProt Q9Y5S2); assay: Inhibition of wild-type human partial length MRCKB (L56 to S417 residues) expressed in bacterial expression system assessed as residual activity at 1 uM by Kinomescan method relative to control
[18] = biological target: Myosin light chain kinase family member 4 (Homo sapiens) (UniProt Q86YV6); assay: Inhibition of wild-type human partial length MYLK4 (V79 to S380 residues) expressed in bacterial expression system assessed as residual activity at 1 uM by Kinomescan method relative to control
[19] = biological target: Mitogen-activated protein kinase 12 (Homo sapiens) (UniProt P53778); assay: Inhibition of wild-type human full length p38-gamma (M1 to L367 residues) expressed in mammalian expression system assessed as residual activity at 1 uM by Kinomescan method relative to control
[20] = biological target: Serine/threonine-protein kinase RIO2 (Homo sapiens) (UniProt Q9BVS4); assay: Inhibition of wild-type human partial length RIOK2 (M1 to D313 residues) expressed in mammalian expression system assessed as residual activity at 1 uM by Kinomescan method relative to control
[21] = biological target: Ribosomal protein S6 kinase alpha-6 (Homo sapiens) (UniProt Q9UK32); assay: Inhibition of wild-type human partial length C-terminal RSK4 kinase domain 2 (I401 to Y711 residues) expressed in bacterial expression system assessed as residual activity at 1 uM by Kinomescan method relative to control
[22] = biological target: Serine/threonine-protein kinase tousled-like 1 (Homo sapiens) (UniProt Q9UKI8); assay: Inhibition of wild-type human partial length TLK1 (K447 to A754 residues) expressed in bacterial expression system assessed as residual activity at 1 uM by Kinomescan method relative to control
[23] = biological target: Non-receptor tyrosine-protein kinase TYK2 (Homo sapiens) (UniProt P29597); assay: Inhibition of wild-type human partial length TYK2 JH2 pseudokinase domain (G556 to D888 residues) expressed in mammalian expression system assessed as residual activity at 1 uM by Kinomescan method relative to control
[24] = biological target: Tyrosine-protein kinase receptor TYRO3 (Homo sapiens) (UniProt Q06418); assay: Inhibition of wild-type human partial length TYRO3 (S497 to T814 residues) expressed in bacterial expression system assessed as residual activity at 1 uM by Kinomescan method relative to control
[25] = biological target: Wee1-like protein kinase (Homo sapiens) (UniProt P30291); assay: Inhibition of wild-type human partial length WEE1 (M291 to K575 residues) expressed in bacterial expression system assessed as residual activity at 1 uM by Kinomescan method relative to control
Sequence of Wee1-like protein kinase (Homo sapiens) (P30291 whole entry, looked up, the tested form may be a part): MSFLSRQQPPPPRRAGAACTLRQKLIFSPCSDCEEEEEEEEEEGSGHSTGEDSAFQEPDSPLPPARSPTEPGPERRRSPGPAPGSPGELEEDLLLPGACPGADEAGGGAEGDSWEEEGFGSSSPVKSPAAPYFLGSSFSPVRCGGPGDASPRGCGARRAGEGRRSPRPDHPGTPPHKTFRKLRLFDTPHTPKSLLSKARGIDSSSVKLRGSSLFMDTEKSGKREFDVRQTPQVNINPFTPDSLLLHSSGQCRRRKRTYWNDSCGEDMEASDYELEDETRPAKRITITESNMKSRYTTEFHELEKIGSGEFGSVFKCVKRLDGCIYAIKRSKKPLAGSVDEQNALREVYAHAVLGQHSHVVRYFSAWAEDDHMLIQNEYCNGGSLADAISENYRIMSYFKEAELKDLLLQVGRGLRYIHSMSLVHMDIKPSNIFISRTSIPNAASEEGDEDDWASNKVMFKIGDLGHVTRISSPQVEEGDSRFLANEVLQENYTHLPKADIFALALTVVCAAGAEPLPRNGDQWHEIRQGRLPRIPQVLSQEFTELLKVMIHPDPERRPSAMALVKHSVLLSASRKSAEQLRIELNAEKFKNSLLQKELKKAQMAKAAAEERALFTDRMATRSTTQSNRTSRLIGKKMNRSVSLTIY

Sequence of Myosin light chain kinase (Homo sapiens) (Q32MK0 whole entry, the tested form may be a part): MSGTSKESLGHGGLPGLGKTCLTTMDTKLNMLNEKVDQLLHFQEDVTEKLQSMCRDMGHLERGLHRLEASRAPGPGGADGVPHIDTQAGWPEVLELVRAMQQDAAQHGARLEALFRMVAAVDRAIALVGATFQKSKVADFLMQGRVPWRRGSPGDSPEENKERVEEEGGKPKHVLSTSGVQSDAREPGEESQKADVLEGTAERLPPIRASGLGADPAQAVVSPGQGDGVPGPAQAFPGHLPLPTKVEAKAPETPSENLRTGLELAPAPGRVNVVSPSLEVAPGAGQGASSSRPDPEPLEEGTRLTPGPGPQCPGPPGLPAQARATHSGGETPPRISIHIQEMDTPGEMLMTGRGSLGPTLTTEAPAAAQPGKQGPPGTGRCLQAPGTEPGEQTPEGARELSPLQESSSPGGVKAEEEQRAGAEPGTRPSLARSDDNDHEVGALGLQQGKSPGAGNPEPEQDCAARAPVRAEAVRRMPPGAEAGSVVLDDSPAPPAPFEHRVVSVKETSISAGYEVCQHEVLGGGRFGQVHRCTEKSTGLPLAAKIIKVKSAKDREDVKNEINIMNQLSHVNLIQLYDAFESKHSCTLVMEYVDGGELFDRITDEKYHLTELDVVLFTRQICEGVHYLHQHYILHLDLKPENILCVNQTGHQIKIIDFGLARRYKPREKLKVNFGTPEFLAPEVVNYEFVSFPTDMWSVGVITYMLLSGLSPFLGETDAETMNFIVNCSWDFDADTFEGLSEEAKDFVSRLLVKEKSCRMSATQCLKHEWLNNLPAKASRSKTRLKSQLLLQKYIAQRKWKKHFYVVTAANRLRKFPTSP
Sequence of Serine/threonine-protein kinase MRCK beta (Homo sapiens) (Q9Y5S2 whole entry, the tested form may be a part): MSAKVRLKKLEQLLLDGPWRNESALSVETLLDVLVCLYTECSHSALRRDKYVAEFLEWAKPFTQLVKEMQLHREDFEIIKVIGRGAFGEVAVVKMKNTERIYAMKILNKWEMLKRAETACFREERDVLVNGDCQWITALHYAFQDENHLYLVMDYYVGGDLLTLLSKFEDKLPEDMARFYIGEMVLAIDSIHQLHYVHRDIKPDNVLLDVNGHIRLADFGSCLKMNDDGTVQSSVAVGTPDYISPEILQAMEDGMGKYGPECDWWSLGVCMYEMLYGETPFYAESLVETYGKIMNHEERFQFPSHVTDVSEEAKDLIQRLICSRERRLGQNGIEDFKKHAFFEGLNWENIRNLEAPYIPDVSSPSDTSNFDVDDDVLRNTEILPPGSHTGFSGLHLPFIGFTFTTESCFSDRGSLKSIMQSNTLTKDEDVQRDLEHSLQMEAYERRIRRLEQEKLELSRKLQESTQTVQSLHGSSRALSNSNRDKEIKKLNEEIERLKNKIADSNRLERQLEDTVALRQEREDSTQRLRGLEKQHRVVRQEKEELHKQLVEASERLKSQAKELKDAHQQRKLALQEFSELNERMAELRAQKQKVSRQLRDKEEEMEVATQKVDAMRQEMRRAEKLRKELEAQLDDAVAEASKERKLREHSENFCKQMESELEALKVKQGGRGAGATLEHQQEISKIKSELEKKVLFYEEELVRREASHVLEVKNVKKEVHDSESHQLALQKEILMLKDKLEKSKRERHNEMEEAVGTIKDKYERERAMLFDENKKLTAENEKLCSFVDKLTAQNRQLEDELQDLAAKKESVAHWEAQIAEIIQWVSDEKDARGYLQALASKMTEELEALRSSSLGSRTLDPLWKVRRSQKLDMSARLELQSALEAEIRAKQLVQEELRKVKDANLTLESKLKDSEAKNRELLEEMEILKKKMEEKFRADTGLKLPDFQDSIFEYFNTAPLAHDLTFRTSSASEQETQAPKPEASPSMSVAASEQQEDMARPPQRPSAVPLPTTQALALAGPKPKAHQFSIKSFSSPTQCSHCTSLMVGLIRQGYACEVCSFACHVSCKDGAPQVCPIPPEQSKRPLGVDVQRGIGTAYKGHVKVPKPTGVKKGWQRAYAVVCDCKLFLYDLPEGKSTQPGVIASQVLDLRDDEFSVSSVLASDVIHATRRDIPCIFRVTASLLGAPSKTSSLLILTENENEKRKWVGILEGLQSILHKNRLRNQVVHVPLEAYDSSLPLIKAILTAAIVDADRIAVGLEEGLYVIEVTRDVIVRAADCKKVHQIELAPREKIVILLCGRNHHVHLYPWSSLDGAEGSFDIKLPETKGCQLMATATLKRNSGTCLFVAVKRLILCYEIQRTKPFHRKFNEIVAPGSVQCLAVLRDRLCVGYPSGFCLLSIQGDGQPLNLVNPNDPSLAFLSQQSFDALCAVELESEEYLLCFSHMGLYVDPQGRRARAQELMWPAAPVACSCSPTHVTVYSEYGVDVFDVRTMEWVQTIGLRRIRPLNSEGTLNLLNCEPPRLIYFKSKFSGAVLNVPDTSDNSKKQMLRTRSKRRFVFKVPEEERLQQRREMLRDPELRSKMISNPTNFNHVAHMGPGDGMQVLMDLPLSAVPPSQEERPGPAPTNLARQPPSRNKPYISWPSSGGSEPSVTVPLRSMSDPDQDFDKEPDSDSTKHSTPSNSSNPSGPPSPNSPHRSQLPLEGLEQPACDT
Sequence of Ephrin type-A receptor 6 (Homo sapiens) (Q9UF33 whole entry, the tested form may be a part): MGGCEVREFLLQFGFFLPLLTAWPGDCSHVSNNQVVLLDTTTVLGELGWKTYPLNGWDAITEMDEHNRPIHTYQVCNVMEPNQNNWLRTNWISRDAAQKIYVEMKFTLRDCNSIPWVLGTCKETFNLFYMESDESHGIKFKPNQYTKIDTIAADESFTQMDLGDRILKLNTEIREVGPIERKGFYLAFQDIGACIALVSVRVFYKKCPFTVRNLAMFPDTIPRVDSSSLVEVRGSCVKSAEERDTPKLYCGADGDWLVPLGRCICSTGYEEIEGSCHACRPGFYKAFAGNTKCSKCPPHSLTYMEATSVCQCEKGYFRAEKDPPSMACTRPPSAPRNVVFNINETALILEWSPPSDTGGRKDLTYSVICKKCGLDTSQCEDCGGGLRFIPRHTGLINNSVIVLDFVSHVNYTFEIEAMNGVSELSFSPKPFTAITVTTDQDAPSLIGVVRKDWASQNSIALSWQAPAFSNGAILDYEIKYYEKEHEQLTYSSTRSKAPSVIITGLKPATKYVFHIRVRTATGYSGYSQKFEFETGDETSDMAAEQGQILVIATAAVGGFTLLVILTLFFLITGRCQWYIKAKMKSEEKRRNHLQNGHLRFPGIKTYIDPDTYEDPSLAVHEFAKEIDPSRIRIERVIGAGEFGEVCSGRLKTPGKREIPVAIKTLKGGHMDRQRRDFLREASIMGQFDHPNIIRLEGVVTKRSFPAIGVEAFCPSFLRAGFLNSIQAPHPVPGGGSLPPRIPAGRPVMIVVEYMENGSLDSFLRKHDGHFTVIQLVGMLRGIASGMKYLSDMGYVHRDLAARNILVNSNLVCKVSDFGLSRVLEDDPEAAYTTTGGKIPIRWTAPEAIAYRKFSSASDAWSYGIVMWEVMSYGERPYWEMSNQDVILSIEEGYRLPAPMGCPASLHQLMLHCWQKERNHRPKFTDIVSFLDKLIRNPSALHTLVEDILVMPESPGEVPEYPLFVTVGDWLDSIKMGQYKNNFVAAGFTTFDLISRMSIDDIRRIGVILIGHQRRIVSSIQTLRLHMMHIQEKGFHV
Sequence of Activin receptor type-1-like (Homo sapiens) (P37023 whole entry, the tested form may be a part): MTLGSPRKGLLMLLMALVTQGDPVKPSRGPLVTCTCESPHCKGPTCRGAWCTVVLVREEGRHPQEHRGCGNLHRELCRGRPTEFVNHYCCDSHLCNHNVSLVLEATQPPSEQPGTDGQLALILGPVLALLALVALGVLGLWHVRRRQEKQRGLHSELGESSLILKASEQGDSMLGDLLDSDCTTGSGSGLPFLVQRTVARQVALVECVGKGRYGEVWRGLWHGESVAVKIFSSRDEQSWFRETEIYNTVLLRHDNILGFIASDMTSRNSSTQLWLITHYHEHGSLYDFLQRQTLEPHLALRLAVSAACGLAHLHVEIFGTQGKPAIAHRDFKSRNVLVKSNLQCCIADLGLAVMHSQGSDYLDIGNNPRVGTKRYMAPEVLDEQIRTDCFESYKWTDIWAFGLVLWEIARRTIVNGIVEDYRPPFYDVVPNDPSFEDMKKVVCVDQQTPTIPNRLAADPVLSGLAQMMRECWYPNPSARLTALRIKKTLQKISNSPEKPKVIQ
Sequence of Mitogen-activated protein kinase 12 (Homo sapiens) (P53778 whole entry, the tested form may be a part): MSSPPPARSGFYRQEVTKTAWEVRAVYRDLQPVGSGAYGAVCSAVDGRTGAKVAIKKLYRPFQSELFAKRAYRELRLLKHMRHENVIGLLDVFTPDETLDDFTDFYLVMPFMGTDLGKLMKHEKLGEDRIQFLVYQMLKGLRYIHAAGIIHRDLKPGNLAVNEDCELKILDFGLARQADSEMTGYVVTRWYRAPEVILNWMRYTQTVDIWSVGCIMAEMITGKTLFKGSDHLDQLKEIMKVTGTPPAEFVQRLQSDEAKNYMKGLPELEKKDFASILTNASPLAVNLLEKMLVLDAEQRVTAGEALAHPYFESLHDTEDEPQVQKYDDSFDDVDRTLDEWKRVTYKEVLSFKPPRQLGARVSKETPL

C=CC(=O)Nc1cc(Nc2cc(-c3cccc(NC(=O)c4ccc(C(C)(C)C)cc4)c3C)cn(C)c2=O)ccc1C(=O)N1CCOCC1
Activity [1]: 100% | Activity [2]: 89% | Activity [3]: 100% | Activity [4]: 94% | Activity [5]: 86% | Activity [6]: 100% | Activity [7]: 92% | Activity [8]: 93% | Activity [9]: 100% | Activity [10]: 100% | Activity [11]: 74% | Activity [12]: 98% | Activity [13]: 86% | Activity [14]: 100% | Activity [15]: 83% | Activity [16]: 98% | Activity [17]: 98% | Activity [18]: 88% | Activity [19]: 100% | Activity [20]: 100% | Activity [21]: 89% | Activity [22]: 99% | Activity [23]: 86% | Activity [24]: 75% | Activity [25]: 99%
